# Results: article PMC12045974, “T cell toxicity induced by tigecycline binding to the mitochondrial ribosome” (Nature Communications, 2025)
# pIC50: −log10 of the molar value. Values joined by “and” are separate entries in the source; they are usually repeats but may differ in a detail not shown here. Equal values may be shown once. Read-outs that look alike come from different tables or passages of the source.
# Experiments:
# [1] = system: mitochondrial translation; assay: 35S metabolic labeling, de novo mitochondrial translation assay in Jurkat T cells; assay type: cell-based, human; settings: 5 μM, 18 h of treatment
# Procedure: Jurkat T cells were seeded in 6-well plates at a density of 1 million cells/ml and cultured with different concentrations of antibiotics for 18 h in RPMI-1640 medium (with 10% FBS, 2.05 mM L-glutamine (Sigma), and 55 μM 2-ME (Gibco)). After centrifugation, cells were incubated twice for 5 min at 37 °C in Cys-/Met-free medium (DMEM, high glucose, no glutamine, no methionine, no cysteine, supplemented with 10% dialyzed fetal bovine serum, 1× GlutaMax, and sodium pyruvate), followed by 20 min incubation at 37 °C in Cys-/Met-free medium supplemented with 100 µg/ml emetine to inhibit cytosolic translation (only for mitochondrial translation groups). Subsequently, 1 ml Cys-/Met-free medium supplemented with 200 (for cytosolic translation) or 400 µCi (for mitochondrial translation) of EasyTag EXPRESS [^35S] protein labeling mix (methionine and cysteine) (Perkin Elmer) were added to each sample and incubated for 20 min at 37 °C, 5% CO2. Following labeling, cells were washed three times with 1 ml PBS, harvested by centrifugation (400 × g, 10 min, 4 °C), and stored at −20 °C. Cells were lysed by resuspension in 30 µl PBS supplemented with a Complete EDTA-free protease inhibitor cocktail and 50 U Benzonase nuclease (Sigma) and by application of one freeze-thaw cycle. Protein contents were determined by Pierce BCA assay (Thermo Fisher). […]
# HeLa cells = assay: Cell viability assay (CCK-8), HeLa cells; assay type: cell-based; settings: 10 μM
# Summary of the method: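 Viability of HeLa cells was measured with Cell Counting Kit-8 after treatment with drug dilutions in 96-well plates (2000 cells/well, DMEM plus 10% FBS and 2.05 mM L-glutamine, humidified 37 °C, 5% CO2). Untreated wells received equal DMSO. After 1 h CCK-8 incubation, technical-repeat dose-response curves were plotted and IC50 values calculated in GraphPad Prism.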
# PBMCs = assay: Cell viability assay (CCK-8), PBMCs; assay type: cell-based, human; settings: 72 h
# Summary of the method: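 Buffy-coat PBMCs were seeded at 15,000 cells/well in RPMI-1640 with 10% FBS, 2.05 mM L-glutamine and 55 μM 2-ME. Cells were exposed for 72 h at 37 °C, 5% CO2 to 9 concentrations, up to 300 μM for tetracyclines and up to 900 μM for other inhibitors, with DMSO controls. CCK-8 read after 4 h; IC50 from dose-response curves.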
# Jurkat T cells = assay: Cell viability assay (CCK-8), Jurkat T cells; assay type: cell-based, human; settings: 72 h; for cell vialibity normalized to Vehicle (DMSO): Jurkat, Fig. 1A, in % (unit assumed)
# Summary of the method: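 This CCK-8 viability assay used Jurkat T cells seeded at 6000 per well and grown in supplemented RPMI-1640, 100 μl per well. Antibiotic stocks in DMSO were diluted in medium to give 9 concentrations, and untreated wells received matching DMSO. After treatment, cells were incubated with 10% CCK-8 for 3 h. Results were normalized to vehicle, technical repeats were plotted as mean ± SEM, and IC50 values were derived.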
# [2] = Homo sapiens, PBMC, PBMCs, Fig. 1A, read-out: cell vialibity normalized to Vehicle (DMSO)
# [3] = Homo sapiens, PBMC, PBMCs, Fig. 1B, read-out: cell vialibity normalized to Vehicle (DMSO)
smiles,measurement,setting,value
"CN(C)c1cc(NC(=O)CNC(C)(C)C)c(O)c2c1C[C@H]1C[C@H]3[C@H](N(C)C)C(O)=C(C(N)=O)C(=O)[C@@]3(O)C(O)=C1C2=O [Tigecycline, tigecycline]",inhibition of mitochondrial translation,[1],inhibited mitochondrial translation
same,HeLa cell survival,HeLa cells,relatively resistant
same,toxicity to PBMCs in comparison with other bacterial protein synthesis inhibitors,PBMCs; Fig. 1B,greatest toxicity to PBMCs
same,viability at 0.137174 µM,"PBMCs; Homo sapiens, PBMC, PBMCs, dose 0.137174 μM, Fig. 1B, read-out: cell vialibity normalized to Vehicle (DMSO)",103%
same,viability at 0.411523 µM,PBMCs; [2],83.9%
same,viability at 0.411523 µM,PBMCs; [3],89.9%
same,viability at 1.23457 µM,PBMCs; [2],75.3%
same,viability at 1.23457 µM,PBMCs; [3],65.1%
same,viability at 3.7037 µM,"PBMCs; Homo sapiens, PBMC, PBMCs, dose 3.7037 μM, Fig. 1B, read-out: cell vialibity normalized to Vehicle (DMSO)",39.4%
same,viability at 11.1111 µM,"PBMCs; Homo sapiens, PBMC, PBMCs, dose 11.1111 μM, Fig. 1A, read-out: cell vialibity normalized to Vehicle (DMSO)",44.2%
same,viability at 33.3333 µM,PBMCs; [2],38.8%
same,viability at 33.3333 µM,PBMCs; [3],21.2%
same,viability at 100 µM,PBMCs; [2],20.8%
same,viability at 100 µM,PBMCs; [3],17.6%
same,pIC50,"PBMCs; Homo sapiens, PBMC, PBMCs, after 3 days of treatment, read-out: IC50 (cell survival)",5.03 to 5.69
same,pIC50,"Jurkat T cells; Homo sapiens, Jurkat T cells, after 3 days of treatment, read-out: IC50 (cell survival)",5.51 to 5.53
same,cell vialibity normalized to Vehicle (DMSO),Jurkat T cells; dose 0.0457247 μM,109.956 and 111.249 and 111.849
same,cell vialibity normalized to Vehicle (DMSO),Jurkat T cells; dose 0.137174 μM,103.553 and 105.77 and 101.862
same,cell vialibity normalized to Vehicle (DMSO),Jurkat T cells; dose 0.411523 μM,97.7193 and 94.1885 and 95.1333
same,cell vialibity normalized to Vehicle (DMSO),Jurkat T cells; dose 1.23457 μM,79.9123 and 80.3238 and 79.0851
same,cell vialibity normalized to Vehicle (DMSO),Jurkat T cells; dose 3.7037 μM,38.8158 and 37.5675 and 38.722
same,cell vialibity normalized to Vehicle (DMSO),Jurkat T cells; dose 11.1111 μM,18.2456 and 17.144 and 16.3775
same,cell vialibity normalized to Vehicle (DMSO),Jurkat T cells; dose 33.3333 μM,11.1842 and 10.0457 and 10.0296
same,cell vialibity normalized to Vehicle (DMSO),Jurkat T cells; dose 100 μM,4.123 and 3.321 and 4.232
same,cell vialibity normalized to Vehicle (DMSO),Jurkat T cells; dose 300 μM,2.237 and 2.989 and 2.158
